The values that follow come from patent publication US8858985B2, “Films comprising a liquid-absorbant inner layer, an antimicrobial material and an impermeable outer layer” (E I du Pont de Nemours and Company, priority 2004, dated 2014).

One assay deals with L. monocytogenes. The assay can be described thus: film on lawn assay. It counts as cell-based. As to the method: Films of Example 1 and Example 2 at 150μ in thickness were cut into 15 mm by 15 mm samples placed onto aluminum foil, and exposed to UV light in a laminar flow hood for 4 to 7 minutes. The samples were then transferred from foil to various solutions as described in Table 6 to soak for 12 to 24 hours at room temperature.
(§1) For each antimicrobial solution concentration, a spot on lawn assay procedure was first conducted on agar plates to assess the efficacy of the solution to colony control. In this procedure, the TSA agar plates were inoculated with L. monocytogenes 15313 at a level of 10E+08 cfu/ml through an Autoplate 4000 model from Spiral Biotech. A volumetric pipette pump was then used to place three 10-μl spots of an antimicrobial solution onto appropriate regions of the test plate. Separately, another volumetric pipette pump was used to place 10 μl of a control solution (i.e., the solution in which the antimicrobial agent is dissolved). Three such agar plates were prepared for each concentration of antimicrobial solution. After spot placement, the plates were allowed to stand undisturbed for 10 to 30 minutes in a laminar flow hood before incubation at 37° C. for at least 24 hours. The resultant zones of inhibition were measured using a dial caliper (Brown and Sharpe, accuracy to 0.02 mm) with each zone measured twice on a 90° axis. Three such spots (for the antimicrobial treated solution) were so measured per plate, with three plates per condition to provide 18 such measurements. […] In the film on lawn procedure, 15 mm×15 mm films of example 1 and 2 were placed in freshly made up solutions for 12 to 24 hours at room temperature and then removed with a pair of flame-sterilized ocular forceps, allowed to drip dry, then placed for 60 seconds on a sterile Petri-dish before positioning on agar plates in a film on lawn assay procedure. The TSA agar plates had been prepared by inoculating with L. monocytogenes at a level of 10E+08 cfu/ml through an Autoplate 4000 model from Spiral Biotech. Two such films were so placed on the prepared TSA agar plates. A third 15 mm×15 mm film was soaked under the same conditions in a control solution (the solution without the antimicrobial agent) and placed in a third region of the plate. Three such plates were prepared in this manner for each concentration of antimicrobial agent. After film placement, the plates were allowed to stand undisturbed for 10 to 30 minutes in a laminar flow hood before incubation at 37° C. for at least 24 hours. The resultant zones of inhibition were measured using a dial caliper (Brown and Sharpe, accuracy to 0.02 mm) with each zone measured twice on a 90° axis. Two such films (for the antimicrobial treated film) were so measured per plate, with three plates per condition to provide 12 such measurements. No zones of inhibition were recorded for the control films.

The test system of a further assay is L. monocytogenes 15313. The assay can be described thus: spot on lawn assay. It counts as cell-based. As to conditions: 10-μl spots.
Text: as §1, with “Two such films were so placed on the prepared TSA agar plates. A third 15 mm×15 mm film was soaked under the same conditions in a control solution (the solution without the antimicrobial agent) and placed in a third region of the plate. Three such plates were prepared in this manner for each concentration of antimicrobial agent. After film placement, the plates were allowed to stand undisturbed for 10 to 30 minutes in a laminar flow hood before incubation at 37° C. for at least 24 hours.” left out

As for `O=C(O)CC(O)(CC(=O)O)C(=O)O` [Citric acid], the “Group averages of Inhibition Zones (mm), Film on Lawn Assay Example 1” value in the assay with L. monocytogenes (film of Example 1 soaked in 5 wt % in Water (95)) is recorded as “Slight^3”; in the assay on L. monocytogenes (film of Example 1 soaked in 7.5 wt % in Water (92.5)), 19.21 ± 0.25 mm; in the assay with L. monocytogenes (film of Example 1 soaked in 10 wt % in Water (90)), 21.00 ± 0.63 mm. Further, the “Group averages of Inhibition Zones (mm), Film on Lawn Assay Example 2” value in the assay with L. monocytogenes (film of Example 2 soaked in 5 wt % in Water (95)), in the assay on L. monocytogenes (film of Example 2 soaked in 7.5 wt % in Water (92.5)) and in the assay with L. monocytogenes (film of Example 2 soaked in 10 wt % in Water (90)) was 0 mm throughout.

`O=C(O)c1ccccc1` [Benzoic acid]: the “Group averages of Inhibition Zones (mm), Spot on Lawn Assay” value in the assay on L. monocytogenes 15313 (0.75 wt % in Ethanol/Water (36/63.25)) is listed as 7.31 ± 0.91 mm; in the assay on L. monocytogenes 15313 (1.5 wt % in Ethanol/Water (36/62.5)), 7.70 ± 0.61 mm; in the assay on L. monocytogenes 15313 (3.0 wt % in Ethanol/Water (36/61)) it was 8.64 ± 0.76 mm. For the same compound, the “Group averages of Inhibition Zones (mm), Film on Lawn Assay Example 1” value with L. monocytogenes (15 mm x 15 mm film of Example 1 soaked 12-24 h in 0.75 wt % in Ethanol/Water (36/63.25)) came to 21.55 ± 0.77 mm; with L. monocytogenes (film of Example 1 soaked in 1.5 wt % in Ethanol/Water (36/62.5)) it was 25.92 ± 1.02 mm; in the assay with L. monocytogenes (film of Example 1 soaked in 3.0 wt % in Ethanol/Water (36/61)) it was 25.76 ± 0.41 mm. Moreover, the “Group averages of Inhibition Zones (mm), Film on Lawn Assay Example 2” value was found to be 23.49 ± 1.47 mm in the assay on L. monocytogenes (15 mm x 15 mm film of Example 2 soaked 12-24 h in 0.75 wt % in Ethanol/Water (36/63.25)), 27.85 ± 0.96 mm in the assay on L. monocytogenes (film of Example 2 soaked in 1.5 wt % in Ethanol/Water (36/62.5)) and 27.6 ± 2.03 mm with L. monocytogenes (film of Example 2 soaked in 3.0 wt % in Ethanol/Water (36/61)).
